Test results published in ChEMBL document CHEMBL1201862, “PubChem BioAssay data set” (2004).
Calls of active or inactive are those of the source.

Key:
[1] = target: Mitogen-activated protein kinase 10 (Homo sapiens, UniProt P53779); assay: Dose response biochemical screening assay for inhibitors of c-Jun N-Terminal Kinase 3 (JNK3). [Related pubchem assays: 746 ]
[2] = target: T1, Carboxy-terminal domain RNA polymerase II polypeptide A small phosphatase 1 (Homo sapiens, UniProt Q9GZU7); assay: inhibitors of CTDSP1, concentration-response testing, biochemical assay, absorbance-based, actives from ultra-high-throughput screening (AID 540297); assay type: functional
T1 sequence (Q9GZU7 whole entry): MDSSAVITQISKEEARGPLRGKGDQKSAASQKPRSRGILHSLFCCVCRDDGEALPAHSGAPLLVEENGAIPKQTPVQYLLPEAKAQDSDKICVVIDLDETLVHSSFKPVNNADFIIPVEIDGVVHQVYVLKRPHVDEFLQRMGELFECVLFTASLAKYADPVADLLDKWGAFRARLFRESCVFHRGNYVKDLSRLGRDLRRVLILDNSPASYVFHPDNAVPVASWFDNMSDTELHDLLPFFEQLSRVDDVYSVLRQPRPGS

[3] = inhibitors of Bluetongue virus cytopathic effect, confirmation, arbovirus, BSR cells (AID 1250); assay type: functional;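 also: protection from viral cytopathic effect measured as cell viability by ATP luminescence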
[4] = cytotoxicity toward HT-29 cells – cell-based, CellTiter-Glo luminescence, IC50, dose response (AID 1117330); assay type: functional
[5] = Concentration-dependent survival of SW480 colon cancer line, luminescence detection with CellTiter-Glo, half-maximal inhibitory concentration (AID 1117338); assay type: functional
[6] = cytotoxicity toward HCT116 cells – cell-based, CellTiter-Glo luminescence, IC50, dose response (AID 1117332); assay type: functional; conditions: HCT-116
[7] = RKO cell viability reduction, dose response, CellTiter-Glo luminescence (AID 1117322); assay type: functional
[8] = Dose-response inhibition of insulin secretion in a rat insulinoma line at 5 mM glucose (AID 1117331); assay type: functional, cell-based; conditions: INS-1E
[9] = HCT116 cell viability decrease, GSK3B pretreatment – CellTiter-Glo, IC50, dose response (AID 1117339); assay type: functional; conditions: HCT-116
cells = assay type: functional, cell-based; conditions: INS-1E
[10] = SNU-C1 cell viability reduction, dose response, CellTiter-Glo luminescence (AID 1117323); assay type: functional, cell-based
[11] = CellTiter-Glo luminescent dose response of DLD-1 viability loss (AID 1117352); assay type: functional
Vero [12] = assay: West Nile virus antiviral activity, cell-based, CPE readout (AID 1621); assay type: functional; conditions: Chlorocebus sabaeus
Vero [13] = assay: cells; assay type: functional, cell-based; conditions: Chlorocebus sabaeus
[14] = target: Muscarinic acetylcholine receptor M1 (Rattus norvegicus, UniProt P08482); assay: rat M1 positive allosteric modulator potency, dose response, cell-based, calcium mobilization, CHO-K1, ACh EC20 (AID 2425); assay type: functional
Sequence of Muscarinic acetylcholine receptor M1 (P08482 whole entry): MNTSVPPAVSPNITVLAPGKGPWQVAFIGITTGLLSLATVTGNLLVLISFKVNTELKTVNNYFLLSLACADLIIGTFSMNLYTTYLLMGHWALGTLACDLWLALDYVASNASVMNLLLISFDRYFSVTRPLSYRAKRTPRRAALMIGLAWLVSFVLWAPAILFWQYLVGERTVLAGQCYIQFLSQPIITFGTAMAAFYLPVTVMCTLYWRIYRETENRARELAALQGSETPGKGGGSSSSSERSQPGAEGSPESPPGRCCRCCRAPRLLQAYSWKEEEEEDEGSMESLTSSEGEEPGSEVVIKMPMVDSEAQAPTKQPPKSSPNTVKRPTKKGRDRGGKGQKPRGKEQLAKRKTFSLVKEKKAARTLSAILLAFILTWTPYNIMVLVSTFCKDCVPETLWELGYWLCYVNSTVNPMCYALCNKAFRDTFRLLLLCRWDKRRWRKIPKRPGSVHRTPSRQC

[15] = target: T2, Sentrin-specific protease 8 (Homo sapiens, UniProt Q96LD8); assay type: functional
T2 sequence (Q96LD8 whole entry): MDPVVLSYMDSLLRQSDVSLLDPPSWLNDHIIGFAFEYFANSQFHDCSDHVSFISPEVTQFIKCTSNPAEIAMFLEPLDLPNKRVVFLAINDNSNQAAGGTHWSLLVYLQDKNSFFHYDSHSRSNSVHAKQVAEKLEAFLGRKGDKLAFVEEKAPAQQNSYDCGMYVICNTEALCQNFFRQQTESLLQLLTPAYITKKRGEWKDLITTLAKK

[16] = target: Serine/threonine-protein phosphatase PP1-alpha catalytic subunit (Homo sapiens, UniProt P62136); assay: PP1 phosphatase inhibitors, dose response, biochemical, fluorescence (AID 2394)
Sequence of Serine/threonine-protein phosphatase PP1-alpha catalytic subunit (P62136 whole entry): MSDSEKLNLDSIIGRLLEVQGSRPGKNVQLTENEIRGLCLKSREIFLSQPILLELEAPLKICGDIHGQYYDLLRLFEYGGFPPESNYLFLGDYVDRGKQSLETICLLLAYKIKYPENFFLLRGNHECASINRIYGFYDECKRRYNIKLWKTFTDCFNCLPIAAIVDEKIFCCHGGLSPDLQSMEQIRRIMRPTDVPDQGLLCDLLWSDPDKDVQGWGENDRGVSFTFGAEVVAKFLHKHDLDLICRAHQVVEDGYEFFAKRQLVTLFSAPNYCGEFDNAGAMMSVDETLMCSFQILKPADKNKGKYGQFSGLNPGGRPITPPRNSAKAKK

[17] = target: T3, Serine/threonine-protein phosphatase (Homo sapiens, UniProt Q9BPW0); assay: PP5 phosphatase inhibitors, dose response, biochemical, fluorescence (AID 2395)
T3 sequence (Q9BPW0 whole entry): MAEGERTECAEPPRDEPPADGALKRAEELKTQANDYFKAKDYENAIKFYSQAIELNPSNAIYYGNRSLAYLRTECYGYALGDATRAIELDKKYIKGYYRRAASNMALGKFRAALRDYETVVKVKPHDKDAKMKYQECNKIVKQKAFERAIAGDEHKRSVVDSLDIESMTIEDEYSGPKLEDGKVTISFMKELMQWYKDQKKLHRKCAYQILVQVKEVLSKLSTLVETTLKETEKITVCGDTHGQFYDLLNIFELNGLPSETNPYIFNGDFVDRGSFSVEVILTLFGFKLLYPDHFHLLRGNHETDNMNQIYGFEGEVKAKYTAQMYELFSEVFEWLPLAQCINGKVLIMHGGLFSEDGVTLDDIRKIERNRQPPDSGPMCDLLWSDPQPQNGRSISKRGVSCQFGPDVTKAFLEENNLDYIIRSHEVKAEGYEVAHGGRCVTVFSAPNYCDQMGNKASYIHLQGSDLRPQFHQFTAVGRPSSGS

[18] = target: T2, Sentrin-specific protease 8; assay type: functional; remark: listed apart in the source
[19] = target: T4, Histone-lysine N-methyltransferase NSD2 (Homo sapiens, UniProt O96028); assay type: biochemical
T4 sequence (O96028 whole entry): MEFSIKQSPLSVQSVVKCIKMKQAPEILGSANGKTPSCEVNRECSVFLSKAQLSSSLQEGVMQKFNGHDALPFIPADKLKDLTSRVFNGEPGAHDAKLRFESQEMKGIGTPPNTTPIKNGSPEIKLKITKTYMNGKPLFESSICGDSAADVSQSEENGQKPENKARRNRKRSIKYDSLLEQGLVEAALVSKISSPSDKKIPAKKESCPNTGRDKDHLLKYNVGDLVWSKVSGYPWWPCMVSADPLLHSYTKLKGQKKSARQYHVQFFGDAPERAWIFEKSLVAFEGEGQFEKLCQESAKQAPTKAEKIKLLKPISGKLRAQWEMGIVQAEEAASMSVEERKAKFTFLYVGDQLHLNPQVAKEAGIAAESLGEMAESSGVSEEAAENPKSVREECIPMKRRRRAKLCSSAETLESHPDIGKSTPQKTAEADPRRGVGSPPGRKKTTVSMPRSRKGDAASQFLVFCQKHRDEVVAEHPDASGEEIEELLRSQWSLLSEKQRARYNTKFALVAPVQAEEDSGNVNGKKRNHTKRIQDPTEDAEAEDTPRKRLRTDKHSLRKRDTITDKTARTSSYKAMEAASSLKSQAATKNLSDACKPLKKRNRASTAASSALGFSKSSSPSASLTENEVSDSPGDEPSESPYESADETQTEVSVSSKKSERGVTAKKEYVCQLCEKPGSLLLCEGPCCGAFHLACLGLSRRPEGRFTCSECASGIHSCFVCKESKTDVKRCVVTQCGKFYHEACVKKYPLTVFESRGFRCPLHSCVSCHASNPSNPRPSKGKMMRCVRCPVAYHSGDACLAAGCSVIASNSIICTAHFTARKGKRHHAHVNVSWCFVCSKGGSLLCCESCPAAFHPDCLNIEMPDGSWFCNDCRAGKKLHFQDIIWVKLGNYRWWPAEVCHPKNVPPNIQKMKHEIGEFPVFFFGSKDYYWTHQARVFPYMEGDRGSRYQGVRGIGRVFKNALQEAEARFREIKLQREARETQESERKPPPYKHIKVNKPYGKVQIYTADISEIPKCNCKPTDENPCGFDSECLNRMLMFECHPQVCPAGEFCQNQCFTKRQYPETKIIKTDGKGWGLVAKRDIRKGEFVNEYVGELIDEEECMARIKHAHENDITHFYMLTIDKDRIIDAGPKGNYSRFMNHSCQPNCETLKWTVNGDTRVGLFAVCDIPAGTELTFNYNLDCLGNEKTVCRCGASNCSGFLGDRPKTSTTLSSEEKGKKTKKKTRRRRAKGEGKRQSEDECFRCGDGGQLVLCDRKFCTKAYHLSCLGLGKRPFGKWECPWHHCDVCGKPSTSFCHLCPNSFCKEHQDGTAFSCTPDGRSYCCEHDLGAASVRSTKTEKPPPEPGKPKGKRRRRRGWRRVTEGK

[20] = target: Induced myeloid leukemia cell differentiation protein Mcl-1 (Homo sapiens, UniProt Q07820); assay type: functional
Sequence of Induced myeloid leukemia cell differentiation protein Mcl-1 (Q07820 whole entry): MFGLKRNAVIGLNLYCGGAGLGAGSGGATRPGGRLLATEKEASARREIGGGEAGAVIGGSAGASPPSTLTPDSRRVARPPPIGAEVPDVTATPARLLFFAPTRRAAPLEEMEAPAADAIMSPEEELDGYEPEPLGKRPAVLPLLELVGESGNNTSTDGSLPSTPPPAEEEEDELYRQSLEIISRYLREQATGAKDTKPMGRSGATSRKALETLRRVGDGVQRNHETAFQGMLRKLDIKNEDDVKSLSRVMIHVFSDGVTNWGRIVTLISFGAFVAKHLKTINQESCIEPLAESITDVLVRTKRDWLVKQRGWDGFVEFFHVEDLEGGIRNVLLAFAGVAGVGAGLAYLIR

[21] = THP-1 cell cytotoxicity, dose response, cytotoxicity control for Vif-APOBEC3G degradation inhibitor project, THP-1 cells (AID 1117359); assay type: functional; conditions: Human immunodeficiency virus 1, THP-1
[22] = target: E3 ubiquitin-protein ligase Mdm2 (Homo sapiens, UniProt Q00987); assay: enhancers of MDM2-luciferase reporter signal, concentration-effect titration, project on inhibitors of MDM2 ubiquitin ligase, cellular assay, luminescent readout, 384-well plate format (AID 1394); assay type: functional;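 also: MDM2 E3 inhibitors raise luminescence so EC50 is for signal enhancement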
Sequence of E3 ubiquitin-protein ligase Mdm2 (Q00987 whole entry): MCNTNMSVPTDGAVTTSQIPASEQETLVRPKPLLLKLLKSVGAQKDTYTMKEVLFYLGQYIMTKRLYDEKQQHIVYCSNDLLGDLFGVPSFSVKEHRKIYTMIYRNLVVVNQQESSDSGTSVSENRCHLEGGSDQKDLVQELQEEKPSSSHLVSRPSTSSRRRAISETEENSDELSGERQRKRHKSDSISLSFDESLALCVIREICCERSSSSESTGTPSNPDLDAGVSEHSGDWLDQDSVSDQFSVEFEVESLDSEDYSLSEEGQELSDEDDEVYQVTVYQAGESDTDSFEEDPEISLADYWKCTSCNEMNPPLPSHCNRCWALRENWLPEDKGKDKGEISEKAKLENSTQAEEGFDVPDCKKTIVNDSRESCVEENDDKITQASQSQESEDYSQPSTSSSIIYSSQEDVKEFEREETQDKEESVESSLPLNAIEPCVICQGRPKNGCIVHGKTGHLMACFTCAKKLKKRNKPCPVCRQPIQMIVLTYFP

[23] = A549 cell cytotoxicity, dose response, CellTiter-Glo luminescence, dry powder, set 17 (AID 1117284); assay type: functional, cell-based
Galanin receptor type 2 = Galanin receptor type 2 (Homo sapiens, UniProt O43603); assay: Dose Response cell-based high-throughput screening assay to identify antagonists of galanin receptor 2 (GALR2). [Related pubchem assays: 828, 866 ]; assay type: functional
Sequence of Galanin receptor type 2 (O43603 whole entry): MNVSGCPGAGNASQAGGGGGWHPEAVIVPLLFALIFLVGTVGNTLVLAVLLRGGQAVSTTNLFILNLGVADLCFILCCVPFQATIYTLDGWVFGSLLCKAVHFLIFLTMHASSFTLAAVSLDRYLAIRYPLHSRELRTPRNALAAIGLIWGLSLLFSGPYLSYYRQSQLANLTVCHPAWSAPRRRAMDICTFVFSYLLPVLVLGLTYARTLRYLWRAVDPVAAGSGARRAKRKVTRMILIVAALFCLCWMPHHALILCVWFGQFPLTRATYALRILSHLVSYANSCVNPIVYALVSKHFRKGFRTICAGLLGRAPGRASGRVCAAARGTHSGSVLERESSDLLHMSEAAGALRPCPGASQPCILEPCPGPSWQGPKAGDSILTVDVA

[24] = HEK293T cytotoxicity, dose response, cytotoxicity control for miR-122 modulator project, cell-based, activator set, cherry-pick (AID 720690); assay type: functional;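 also: HEK293T human cells scored for general mammalian cytotoxicity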
[25] = miR-122 activators in hepatoma reporter cells, dose response, cell-based, Huh7 psiCHECK-miR122, Renilla luciferase, cherry-picked (AID 651956); assay type: functional;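 also: huh7 hepatoma cells stably carrying a psiCHECK-2 miR-122 sensor plasmid; renilla luciferase signal reporting endogenous miR-122 activity after 48 h compound exposure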
[26] = target: Sphingosine 1-phosphate receptor 1 (Homo sapiens, UniProt P21453); assay type: functional;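 also: Tango beta-arrestin reporter U2OS cells stimulated with S1P near its EC80; inhibitor potency meaning antagonism of receptor activation by the natural agonist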
Sequence of Sphingosine 1-phosphate receptor 1 (P21453 whole entry): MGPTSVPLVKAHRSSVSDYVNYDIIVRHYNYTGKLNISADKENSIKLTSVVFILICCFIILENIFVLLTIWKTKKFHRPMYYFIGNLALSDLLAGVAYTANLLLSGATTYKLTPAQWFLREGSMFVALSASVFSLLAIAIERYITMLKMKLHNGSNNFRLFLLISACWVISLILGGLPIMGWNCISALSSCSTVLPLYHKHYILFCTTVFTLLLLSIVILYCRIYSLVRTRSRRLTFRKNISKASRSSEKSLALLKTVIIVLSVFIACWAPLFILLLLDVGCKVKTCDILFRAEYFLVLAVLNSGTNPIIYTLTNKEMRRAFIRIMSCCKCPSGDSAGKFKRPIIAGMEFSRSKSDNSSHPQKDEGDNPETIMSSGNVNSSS

[27] = target: T5, Microphthalmia-associated transcription factor (Homo sapiens, UniProt O75030); assay: TRPM1 promoter luciferase signal decrease, dose response, MITF inhibitor project, cell-based, SK-MEL-5, cherry-picked, set 3 (AID 493073); assay type: functional
T5 sequence (O75030 whole entry): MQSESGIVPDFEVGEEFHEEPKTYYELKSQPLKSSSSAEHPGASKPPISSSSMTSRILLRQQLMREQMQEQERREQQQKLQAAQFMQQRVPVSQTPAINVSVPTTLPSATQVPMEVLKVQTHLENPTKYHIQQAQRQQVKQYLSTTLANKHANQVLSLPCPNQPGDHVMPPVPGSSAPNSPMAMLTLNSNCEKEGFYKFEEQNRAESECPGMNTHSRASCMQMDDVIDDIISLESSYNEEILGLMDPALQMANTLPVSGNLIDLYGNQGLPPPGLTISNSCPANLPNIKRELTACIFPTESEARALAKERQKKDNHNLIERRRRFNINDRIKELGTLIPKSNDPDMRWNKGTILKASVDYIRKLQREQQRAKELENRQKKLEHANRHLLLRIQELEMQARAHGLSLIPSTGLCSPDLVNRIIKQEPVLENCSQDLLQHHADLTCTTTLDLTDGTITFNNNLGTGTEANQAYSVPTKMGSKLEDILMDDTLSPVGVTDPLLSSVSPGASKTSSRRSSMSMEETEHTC

[28] = target: Sphingosine 1-phosphate receptor 4 (Homo sapiens, UniProt O95977); assay: Fluorescence dose response cell-based high throughput screening assay for antagonists of the Sphingosine 1-Phosphate Receptor 4 (S1P4). [Related pubchem assays: 1524 (Confirmation in triplicates.), 1510 (Primary screen.)]; assay type: functional
Sequence of Sphingosine 1-phosphate receptor 4 (O95977 whole entry): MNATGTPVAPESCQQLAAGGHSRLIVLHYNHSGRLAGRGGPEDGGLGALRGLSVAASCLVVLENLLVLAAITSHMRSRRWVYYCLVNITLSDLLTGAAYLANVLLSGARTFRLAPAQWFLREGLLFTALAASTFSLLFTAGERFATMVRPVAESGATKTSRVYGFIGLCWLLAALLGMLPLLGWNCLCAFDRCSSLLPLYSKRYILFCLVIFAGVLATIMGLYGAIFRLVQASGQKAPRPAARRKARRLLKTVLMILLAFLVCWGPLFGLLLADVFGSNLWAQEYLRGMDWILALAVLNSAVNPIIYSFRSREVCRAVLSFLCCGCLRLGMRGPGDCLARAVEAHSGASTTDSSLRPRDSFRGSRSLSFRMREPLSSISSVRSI

[29] = P. falciparum late gametocyte killing, dose response, luminescence (AID 1117278); assay type: functional, cell-based;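 also: gametocytes exposed to compound for 24 hours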
[30] = Jurkat T cell cytotoxicity, dose response, cytotoxicity control for P. falciparum gametocyte viability project, luminescence (AID 1117277); assay type: functional, cell-based;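 also: potency reflects loss of cellular ATP meaning fewer viable cells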

Sequence of Mitogen-activated protein kinase 10 (P53779 whole entry, the tested form may be a part): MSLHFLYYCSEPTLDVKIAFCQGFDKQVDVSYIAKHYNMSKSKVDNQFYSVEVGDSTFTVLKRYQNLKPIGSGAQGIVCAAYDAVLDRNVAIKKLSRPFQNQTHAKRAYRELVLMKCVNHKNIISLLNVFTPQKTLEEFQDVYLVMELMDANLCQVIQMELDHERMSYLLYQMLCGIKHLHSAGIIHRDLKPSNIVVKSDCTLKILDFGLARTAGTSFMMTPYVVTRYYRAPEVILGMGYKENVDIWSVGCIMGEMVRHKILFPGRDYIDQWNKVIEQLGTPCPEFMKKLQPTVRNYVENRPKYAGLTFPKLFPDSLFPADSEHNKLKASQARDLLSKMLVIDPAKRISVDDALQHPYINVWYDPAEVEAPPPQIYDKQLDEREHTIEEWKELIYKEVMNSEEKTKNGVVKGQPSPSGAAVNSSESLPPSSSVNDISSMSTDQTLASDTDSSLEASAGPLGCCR

For `c1csc(-c2cnc3ccccc3n2)c1`, the IC50 [1] was 34 µM (not active).

For `O=C(COC(=O)c1ccc(NS(=O)(=O)c2cccs2)cc1)Nc1nc2c(F)c(F)c(F)cc2s1`, the IC50 [2] was 4.05 µM (active) and the IC50 [3] was 46.2 µM (active).

With `Cc1c(C)n(Cc2ccccc2)c2ccc(C(=O)OCCN(C)C)cc12` [INDOCATE] the IC50 [4] was > 6.67 µM (inactive), the IC50 [5] was 8.78 µM (inactive) and the IC50 [6] was 11.8 µM (inactive). For the same molecule, the IC50 [7] was 12.8 µM (inactive), the IC50 [8] was 3.84 µM (active) and the IC50 [9] was 5.47 µM (inactive). The IC50 (cells) was 14.9 µM (inactive), the IC50 [10] was 12 µM (inactive) and the IC50 [11] was 11.3 µM (inactive).

In the case of `CN(C)CCNC(=O)c1cc2sc3ccccc3c2s1`, the IC50 (Vero [12]) is reported as 24.5 µM (active) and the IC50 (Vero [13]) is reported as 21 µM (active).

For `Cn1cc(-c2ccc(CN3C(=O)C(=O)c4c(F)ccc(F)c43)c(F)c2)cn1`, the EC50 [14] was 1.23 µM (active).

In the case of `CCOc1ccc(NC(S)=Nc2ccc3nsnc3c2)cc1`, the IC50 [15] is reported as 2.32 µM (active), the IC50 [16] is reported as > 67 µM (not active) and the IC50 [17] is reported as 8.78 µM (active). The IC50 [18] was 5.72 µM (active) and the AC50 [19] was 4.61 µM (active).

In the case of `O=C(c1cccc(F)c1)N1CCCC(C(=O)N2CCCC2)C1` (configuration not stated), the IC50 [1] is reported as > 93.1 µM (not active).

With `Cc1cc(C(=O)COC(=O)c2cc(O)c3ccccc3c2O)c(C)n1CC1CCCO1` (configuration not stated) the IC50 [20] was 3.09 µM (active) and the CC50 [21] was 25.9 µM (active).

With `Cn1cc(-c2cc(F)c(CN3C(=O)C(=O)c4cccc(F)c43)c(F)c2)cn1` the EC50 [14] was 1.03 µM (active).

With `Cc1noc(C)c1COc1ccc(C(=O)NCc2ccccn2)cc1` the EC50 [22] was 2.96 µM (not active).

With `CCN(CC)CCNC(=O)C1CCN(S(=O)(=O)c2c(C)noc2/C=C/c2ccccc2F)CC1` the IC50 (Vero [12]) was 25 µM (active).

For `COc1ccc(-c2ccc3c(c2)O[C@@H](CN(C)Cc2ccc(-c4ccccc4)cc2)[C@@H](C)CN([C@@H](C)CO)S3(=O)=O)cc1`, the AC50 [23] was 32.6 µM (active).

For `CCc1ccccc1NC(=O)CN(C)C(=O)Cn1ncc(Cl)c(Cl)c1=O`, the IC50 (Galanin receptor type 2) was 7.62 µM (active), the AC50 [24] was 4.59 µM (active) and the AC50 [25] was 13.2 µM (active). The IC50 [26] was 13.6 µM (not active), the AC50 [27] was 11 µM (active) and the IC50 [28] was 2.11 µM (active).

With `Cc1cc(C(=O)Nc2cccc3ccccc23)n(-c2ccccc2)n1` the EC50 [22] was 25 µM (not active).

For `COc1cccc(-c2ccc(CN(C)C[C@@H]3Oc4cc(C#C[C@@H](C)O)ccc4S(=O)(=O)N([C@@H](C)CO)C[C@@H]3C)cc2)c1`, the AC50 [23] was 32.6 µM (active).

In the case of `COc1ccc(N2C(=O)CSC23C(=O)N2CCCc4cccc3c42)cc1` (configuration not stated), the IC50 [29] is reported as > 109 µM (inactive) and the IC50 [30] is reported as > 83.3 µM (inactive).
